Where two headings read alike, the source gives them in different places.
Tests used:
[1] = target: Nav 1.7 (Homo sapiens (Human), UniProt Q15858); experiment: in-vitro Nav 1.7 PX (IC50); type: cell-based
[2] = target: Nav 1.5 (Homo sapiens (Human), UniProt Q14524); experiment: in-vitro Nav 1.5 PX (IC50); conditions: read-out: Nav 1.5 PX IC50
[3] = in-vitro Nav 1.5 PX data (PatchXpress)

Sequence of Nav 1.7 (Q15858 whole entry): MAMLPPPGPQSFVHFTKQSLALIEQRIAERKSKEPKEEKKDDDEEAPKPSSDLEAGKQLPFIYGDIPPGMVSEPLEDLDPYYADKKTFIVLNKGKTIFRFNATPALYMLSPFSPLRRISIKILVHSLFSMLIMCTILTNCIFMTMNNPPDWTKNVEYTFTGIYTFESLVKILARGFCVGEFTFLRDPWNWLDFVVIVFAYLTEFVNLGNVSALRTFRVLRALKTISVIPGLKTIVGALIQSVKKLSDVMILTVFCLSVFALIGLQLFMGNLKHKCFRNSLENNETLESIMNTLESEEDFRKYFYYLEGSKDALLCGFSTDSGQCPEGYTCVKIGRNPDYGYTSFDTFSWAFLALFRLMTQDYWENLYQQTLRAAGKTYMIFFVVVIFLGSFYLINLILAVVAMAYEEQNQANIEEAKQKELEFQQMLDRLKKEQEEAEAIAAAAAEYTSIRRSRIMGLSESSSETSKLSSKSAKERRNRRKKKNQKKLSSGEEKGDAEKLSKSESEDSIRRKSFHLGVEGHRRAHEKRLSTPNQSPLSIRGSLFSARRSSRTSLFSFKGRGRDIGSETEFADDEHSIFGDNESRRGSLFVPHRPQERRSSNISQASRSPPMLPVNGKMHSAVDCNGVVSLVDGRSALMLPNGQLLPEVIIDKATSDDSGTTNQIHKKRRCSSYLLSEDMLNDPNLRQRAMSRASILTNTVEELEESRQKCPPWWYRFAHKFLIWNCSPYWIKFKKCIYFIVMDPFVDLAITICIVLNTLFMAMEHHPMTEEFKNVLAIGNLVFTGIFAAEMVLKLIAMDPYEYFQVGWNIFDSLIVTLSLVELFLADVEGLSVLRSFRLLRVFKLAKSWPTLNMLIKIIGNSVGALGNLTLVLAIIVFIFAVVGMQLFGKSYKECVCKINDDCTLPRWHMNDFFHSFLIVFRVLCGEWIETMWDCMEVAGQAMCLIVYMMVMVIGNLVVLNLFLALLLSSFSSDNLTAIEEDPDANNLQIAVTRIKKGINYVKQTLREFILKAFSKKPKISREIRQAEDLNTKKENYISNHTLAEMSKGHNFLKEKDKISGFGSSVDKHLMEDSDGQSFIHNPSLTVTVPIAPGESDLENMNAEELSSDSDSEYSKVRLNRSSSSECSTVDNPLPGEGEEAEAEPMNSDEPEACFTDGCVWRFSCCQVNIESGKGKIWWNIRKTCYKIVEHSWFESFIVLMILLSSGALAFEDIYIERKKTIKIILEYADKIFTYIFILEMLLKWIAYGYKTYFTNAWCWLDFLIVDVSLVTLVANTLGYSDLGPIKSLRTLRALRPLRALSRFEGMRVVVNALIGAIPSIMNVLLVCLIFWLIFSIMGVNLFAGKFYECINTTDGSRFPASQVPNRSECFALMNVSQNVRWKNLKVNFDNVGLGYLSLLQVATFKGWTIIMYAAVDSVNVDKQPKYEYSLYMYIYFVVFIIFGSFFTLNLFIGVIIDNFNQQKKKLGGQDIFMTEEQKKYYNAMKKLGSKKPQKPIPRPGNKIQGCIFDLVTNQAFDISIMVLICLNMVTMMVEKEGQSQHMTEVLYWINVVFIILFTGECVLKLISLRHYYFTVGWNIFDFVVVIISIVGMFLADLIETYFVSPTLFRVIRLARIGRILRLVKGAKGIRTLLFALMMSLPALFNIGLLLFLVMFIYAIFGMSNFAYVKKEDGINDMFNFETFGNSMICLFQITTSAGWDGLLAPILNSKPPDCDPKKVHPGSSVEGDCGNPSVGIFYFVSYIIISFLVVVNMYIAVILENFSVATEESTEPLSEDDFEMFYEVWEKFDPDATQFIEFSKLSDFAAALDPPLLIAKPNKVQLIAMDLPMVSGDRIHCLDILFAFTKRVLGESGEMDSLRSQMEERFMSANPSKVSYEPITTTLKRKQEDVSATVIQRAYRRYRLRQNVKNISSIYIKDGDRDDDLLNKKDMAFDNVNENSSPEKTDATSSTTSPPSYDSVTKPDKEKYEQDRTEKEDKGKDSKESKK
Sequence of Nav 1.5 (Q14524 whole entry): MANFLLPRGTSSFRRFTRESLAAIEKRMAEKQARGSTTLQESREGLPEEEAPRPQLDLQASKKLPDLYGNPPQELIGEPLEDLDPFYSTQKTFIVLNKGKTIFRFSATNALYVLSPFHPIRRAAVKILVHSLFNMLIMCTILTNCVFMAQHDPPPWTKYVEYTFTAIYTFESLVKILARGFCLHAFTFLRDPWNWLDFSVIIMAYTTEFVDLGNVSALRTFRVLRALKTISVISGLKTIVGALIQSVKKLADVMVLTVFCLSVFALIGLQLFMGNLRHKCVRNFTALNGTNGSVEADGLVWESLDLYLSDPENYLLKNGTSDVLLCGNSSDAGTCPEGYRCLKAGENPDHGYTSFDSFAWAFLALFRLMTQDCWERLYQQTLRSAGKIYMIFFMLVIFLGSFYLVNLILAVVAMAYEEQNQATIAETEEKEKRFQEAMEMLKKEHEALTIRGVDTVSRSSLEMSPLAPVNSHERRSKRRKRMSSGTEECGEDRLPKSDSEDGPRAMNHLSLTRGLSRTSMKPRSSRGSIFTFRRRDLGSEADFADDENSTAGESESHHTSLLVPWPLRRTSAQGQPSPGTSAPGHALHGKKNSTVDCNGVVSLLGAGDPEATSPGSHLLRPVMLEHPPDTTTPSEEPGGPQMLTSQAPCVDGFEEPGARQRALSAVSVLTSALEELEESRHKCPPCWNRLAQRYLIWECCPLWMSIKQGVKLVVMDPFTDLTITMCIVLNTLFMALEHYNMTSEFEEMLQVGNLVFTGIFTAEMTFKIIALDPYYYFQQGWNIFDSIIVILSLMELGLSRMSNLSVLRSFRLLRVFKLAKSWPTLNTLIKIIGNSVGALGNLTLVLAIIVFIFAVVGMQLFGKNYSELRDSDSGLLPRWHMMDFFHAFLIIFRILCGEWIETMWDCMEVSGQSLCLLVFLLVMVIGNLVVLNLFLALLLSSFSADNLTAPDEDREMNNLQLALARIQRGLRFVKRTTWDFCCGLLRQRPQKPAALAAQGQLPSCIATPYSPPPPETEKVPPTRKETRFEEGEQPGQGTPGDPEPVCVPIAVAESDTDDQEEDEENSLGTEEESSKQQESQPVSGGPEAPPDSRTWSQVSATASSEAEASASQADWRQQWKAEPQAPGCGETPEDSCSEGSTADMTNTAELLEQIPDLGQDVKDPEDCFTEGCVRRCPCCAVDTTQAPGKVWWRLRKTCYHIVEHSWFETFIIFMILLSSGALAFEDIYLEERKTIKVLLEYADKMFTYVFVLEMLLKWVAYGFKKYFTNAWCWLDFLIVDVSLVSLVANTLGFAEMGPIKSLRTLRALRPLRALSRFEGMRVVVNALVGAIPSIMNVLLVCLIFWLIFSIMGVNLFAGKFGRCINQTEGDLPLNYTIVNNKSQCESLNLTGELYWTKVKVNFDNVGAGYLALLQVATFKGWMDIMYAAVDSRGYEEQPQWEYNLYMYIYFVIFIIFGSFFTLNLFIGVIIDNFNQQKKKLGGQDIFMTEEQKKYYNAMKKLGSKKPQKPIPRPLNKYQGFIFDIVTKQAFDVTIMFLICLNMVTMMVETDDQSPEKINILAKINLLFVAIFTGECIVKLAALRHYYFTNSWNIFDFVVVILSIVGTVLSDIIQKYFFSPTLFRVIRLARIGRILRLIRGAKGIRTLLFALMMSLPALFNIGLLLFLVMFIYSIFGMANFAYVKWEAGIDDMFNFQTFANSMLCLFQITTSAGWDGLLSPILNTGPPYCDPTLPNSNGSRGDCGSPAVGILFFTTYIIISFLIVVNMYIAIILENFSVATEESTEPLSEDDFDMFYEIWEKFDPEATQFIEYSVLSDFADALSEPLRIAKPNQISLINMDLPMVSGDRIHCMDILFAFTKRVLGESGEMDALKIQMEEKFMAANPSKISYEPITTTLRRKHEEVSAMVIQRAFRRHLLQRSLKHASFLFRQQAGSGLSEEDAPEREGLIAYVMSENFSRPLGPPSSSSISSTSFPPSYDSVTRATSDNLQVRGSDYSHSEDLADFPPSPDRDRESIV

SMILES | IC50 ([1]; in-vitro Nav 1.7 PX data) [nM] | IC50 [1] [nM] | IC50 [2] [nM] | further results
COc1cc(-c2cc(OC)c(-n3c(=O)ccc4cc(S(=O)(=O)Nc5ncccn5)ccc43)cc2F)ccc1Cl (atropisomer, axis not shown; (P)) [Example 685, (P)-1-(4′-chloro-2-fluoro-3′,5-dimethoxy-4-biphenylyl)-2-oxo-N-2-pyrimidinyl-1,2-dihydro-6-quinolinesulfonamide] | – | – | – | IC50 [2, 3]: > 10000 nM
COc1cc(-c2cc(F)cc(Cl)c2)c(F)cc1-n1c(=O)ccc2cc(S(=O)(=O)Nc3ccon3)ccc21 (atropisomer, axis not shown; (P)) [Example 477, (P)-1-(3′-chloro-2,5′-difluoro-5-methoxy-4-biphenylyl)-N-3-isoxazolyl-2-oxo-1,2-dihydro-6-quinolinesulfonamide] | – | 7 | > 30000 | –
COc1cc(-c2cccc(F)c2)c(Cl)cc1-n1c(=O)ccc2cc(S(=O)(=O)Nc3ccncn3)ccc21 (atropisomer, axis not shown; (P)) [Example 465, (P)-1-(2-chloro-3′-fluoro-5-methoxy-[1,1′-biphenyl]-4-yl)-2-oxo-N-(pyrimidin-4-yl)-1,2-dihydroquinoline-6-sulfonamide] | – | – | > 30000 | –
COc1cc(-c2cc(F)cnc2OC)ccc1-n1c(=O)ccc2cc(S(=O)(=O)Nc3ccon3)ccc21 (atropisomer, axis not shown; (P)) [Example 581, (P)-1-(4-(5-fluoro-2-methoxy-3-pyridinyl)-2-methoxyphenyl)-N-3-isoxazolyl-2-oxo-1,2-dihydro-6-quinolinesulfonamide] | – | 102 | > 10000 | –
COc1cc(-c2ccc(F)c(C)c2)c(F)cc1-n1c(=O)ccc2cc(S(=O)(=O)Nc3ccon3)c(F)cc21 [Example 981, 1-(2,4′-difluoro-5-methoxy-3′-methyl-4-biphenylyl)-7-fluoro-N-3-isoxazolyl-2-oxo-1,2-dihydro-6-quinolinesulfonamide] | 14 | – | – | IC50 ([2]; in-vitro Nav 1.5 PX data): 496 nM
COc1cc(-c2cc(OC)c(-n3c(=O)ccc4cc(S(=O)(=O)Nc5cccnn5)ccc43)cc2F)ccc1Cl (atropisomer, axis not shown; (P)) [Example 628, (P)-1-(4′-chloro-2-fluoro-3′,5-dimethoxy-4-biphenylyl)-2-oxo-N-3-pyridazinyl-1,2-dihydro-6-quinolinesulfonamide] | – | – | – | IC50 [2, 3]: > 10000 nM
COc1cc(-c2cc(F)cc(Cl)c2)c(Cl)cc1-n1c(=O)ccc2cc(S(=O)(=O)Nc3ccon3)ccc21 (atropisomer, axis not shown; (P)) [Example 461, (P)-1-(2,3′-dichloro-5′-fluoro-5-methoxy-[1,1′-biphenyl]-4-yl)-N-(isoxazol-3-yl)-2-oxo-1,2-dihydroquinoline-6-sulfonamide] | – | 6 | > 30000 | –
COc1cc(-c2cccc(F)c2)c(Cl)cc1-n1c(=O)ccc2cc(S(=O)(=O)Nc3cccnn3)ccc21 (atropisomer, axis not shown; (P)) [Example 467, (P)-1-(2-chloro-3′-fluoro-5-methoxy-[1,1′-biphenyl]-4-yl)-2-oxo-N-(pyridazin-3-yl)-1,2-dihydroquinoline-6-sulfonamide] | – | 13 | > 30000 | –
COc1cc(-c2cccc(F)c2)c(Cl)cc1-n1c(=O)ccc2cc(S(=O)(=O)Nc3nncs3)ccc21 (atropisomer, axis not shown; (P)) [Example 353, (P)-1-(2-chloro-3′-fluoro-5-methoxy-[1,1′-biphenyl]-4-yl)-2-oxo-N-(1,3,4-THIADIAZOL-2-yl)-1,2-dihydroquinoline-6-sulfonamide] | – | 12 | > 30000 | –
COc1cc(-c2cccc(C(F)(F)F)c2)c(Cl)cc1-n1c(=O)ccc2cc(S(=O)(=O)Nc3ccon3)ccc21 (atropisomer, axis not shown; (P)) [Example 533, (P)-1-(2-chloro-5-methoxy-3′-(trifluoromethyl)-[1,1′-biphenyl]-4-yl)-N-(isoxazol-3-yl)-2-oxo-1,2-dihydroquinoline-6-sulfonamide] | – | 4 | > 30000 | –
COc1cc(-c2cc(F)cc(Cl)c2)c(F)cc1-n1c(=O)ccc2cc(S(=O)(=O)Nc3ncon3)ccc21 (atropisomer, axis not shown; (P)) [Example 326, (P)-1-(3′-chloro-2,5′-difluoro-5-methoxy-4-biphenylyl)-N-1,2,4-oxadiazol-3-yl-2-oxo-1,2-dihydro-6-quinolinesulfonamide] | – | 5 | – | –
COc1nc(Oc2ccc(F)c(F)c2)c(Cl)cc1-n1c(=O)ccc2cc(S(=O)(=O)Nc3ccon3)ccc21 [Example 1222, 1-(5-chloro-6-(3,4-difluorophenoxy)-2-methoxy-3-pyridinyl)-N-3-isoxazolyl-2-oxo-1,2-dihydro-6-quinolinesulfonamide] | – | 903 | – | –
COc1cc(-c2cccc(F)c2)c(Cl)cc1-n1c(=O)ccc2cc(S(=O)(=O)Nc3ccon3)c(F)cc21 (atropisomer, axis not shown; (M)) [Example 357, (M)-1-(2-chloro-3′-fluoro-5-methoxy-[1,1′-biphenyl]-4-yl)-7-fluoro-N-(isoxazol-3-yl)-2-oxo-1,2-dihydroquinoline-6-sulfonamide] | – | 40 | – | –
COc1nc(C#CC2CCCC2)c(Cl)cc1-n1c(=O)ccc2cc(S(=O)(=O)Nc3cccnn3)ccc21 (atropisomer, axis not shown; (P)) [Example 1240, (P)-1-(5-chloro-6-(cyclopentylethynyl)-2-methoxy-3-pyridinyl)-2-oxo-N-3-pyridazinyl-1,2-dihydro-6-quinolinesulfonamide] | – | 124 | – | –
COc1cc(-c2ccc(Cl)cc2C(N)=O)c(F)cc1-n1c(=O)ccc2cc(S(=O)(=O)Nc3ccon3)ccc21 [Example 755, 4-chloro-2′-fluoro-4′-(6-(3-isoxazolylsulfamoyl)-2-oxo-1(2H)-quinolinyl)-5′-methoxy-2-biphenylcarboxamide] | 351 | – | – | –
COc1cc(Br)c(F)cc1-n1c(=O)ccc2cc(S(=O)(=O)Nc3cc(OCC(C)C)ncn3)ccc21 (atropisomer, axis not shown; (P)) [Example 1187, (P)-1-(4-bromo-5-fluoro-2-methoxyphenyl)-N-(6-(2-methylpropoxy)-4-pyrimidinyl)-2-oxo-1,2-dihydro-6-quinolinesulfonamide] | – | 1660 | – | –

Continued, in another order:

IC50 ([1]; in-vitro Nav 1.7 PX data) [nM] | SMILES | IC50 [1] [nM] | IC50 [2] [nM] | further results
14 | COc1cc(Cl)cc(-c2cc(OC)c(-n3c(=O)ccc4cc(S(=O)(=O)Nc5ncccn5)ccc43)cc2F)c1 [Example 924, 1-(3′-chloro-2-fluoro-5,5′-dimethoxy-4-biphenylyl)-2-oxo-N-2-pyrimidinyl-1,2-dihydro-6-quinolinesulfonamide] | – | – | IC50 ([2]; in-vitro Nav 1.5 PX data): > 10000 nM
14 | COc1cc(-c2cc(OC)c(-n3c(=O)ccc4cc(S(=O)(=O)Nc5ccon5)ccc43)cc2F)ccc1C [Example 698, 1-(2-fluoro-3′,5-dimethoxy-4′-methyl-4-biphenylyl)-N-3-isoxazolyl-2-oxo-1,2-dihydro-6-quinolinesulfonamide] | – | – | IC50 ([2]; in-vitro Nav 1.5 PX data): > 10000 nM
4 | COc1cc(-c2ccc(Cl)c(C)c2)c(F)cc1-n1c(=O)ccc2cc(S(=O)(=O)Nc3ncns3)ccc21 [Example 1075, 1-(4′-chloro-2-fluoro-5-methoxy-3′-methyl-4-biphenylyl)-2-oxo-N-1,2,4-thiadiazol-5-yl-1,2-dihydro-6-quinolinesulfonamide] | – | – | IC50 ([2]; in-vitro Nav 1.5 PX data): > 10000 nM
13 | COc1cc(F)cc(-c2ccc(-n3c(=O)ccc4cc(S(=O)(=O)Nc5ccon5)ccc43)c(OC)c2)c1 [Example 1018, 1-(3′-fluoro-3,5′-dimethoxy-4-biphenylyl)-N-3-isoxazolyl-2-oxo-1,2-dihydro-6-quinolinesulfonamide] | – | – | –
285 | COc1cc(-c2ccc(F)c(F)c2)ccc1-n1c(=O)ccc2cc(S(=O)(=O)Nc3ccnc(C)n3)ccc21 [Example 900, 1-(3′,4′-difluoro-3-methoxy-4-biphenylyl)-N-(2-methyl-4-pyrimidinyl)-2-oxo-1,2-dihydro-6-quinolinesulfonamide] | – | – | –

Reference: patent US9212182B2, “Bicyclic sulfonamide compounds as sodium channel inhibitors” (AMGEN INC., priority 2013, dated 2015)
